{
  "source": "patent US11395847B2",
  "about": "“Acylated GLP-1/GLP-2 dual agonists” (Zealand Pharma A/S, priority 2016, dated 2022)",
  "key": {"human GLP-1 receptor": {"target": "T1, human GLP-1 receptor (Homo sapiens, UniProt P43220)", "T1 construct": "expressed in transfected cells", "T1 sequence (P43220 24-463)": "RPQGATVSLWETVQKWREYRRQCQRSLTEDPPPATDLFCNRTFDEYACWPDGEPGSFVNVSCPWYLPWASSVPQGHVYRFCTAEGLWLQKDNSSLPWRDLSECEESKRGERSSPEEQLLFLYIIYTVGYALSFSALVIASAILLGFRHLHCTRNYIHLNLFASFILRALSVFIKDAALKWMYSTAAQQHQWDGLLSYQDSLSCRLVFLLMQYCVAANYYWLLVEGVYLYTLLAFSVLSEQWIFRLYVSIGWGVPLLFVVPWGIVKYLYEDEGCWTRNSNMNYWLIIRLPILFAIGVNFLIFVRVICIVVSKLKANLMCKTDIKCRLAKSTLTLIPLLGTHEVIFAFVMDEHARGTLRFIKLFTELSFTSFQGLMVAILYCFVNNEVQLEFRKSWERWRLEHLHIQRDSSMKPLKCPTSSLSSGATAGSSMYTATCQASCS", "experiment": "GLP-1 receptor potency assay (cAMP ALPHASCREEN, HEK293 cells stably expressing GLP-1 R)", "assay_type": "cell-based", "details": "cAMP response, HEK293 cells expressing human GLP-1 R", "excerpt": "One useful in vitro assay for measuring GLP-1 and GLP-2 receptor activity is quantitation of cAMP, i.e. 3′-5′-cyclic adenosine monophosphate, which is a second messenger essential in many biological processes, and one of the most ubiquitous mechanisms for regulating cellular functions.\nThe cDNA encoding the human glucagon-like peptide 1 receptor (GLP-1 R) (primary accession number P43220) was cloned from the cDNA BC112126 (MGC:138331/IMAGE:8327594). The DNA encoding the GLP-1-R was amplified by PCR using primers encoding terminal restriction sites for subcloning. The 5′-end primers additionally encoded a near Kozak consensus sequence to ensure efficient translation. […] The PCR products encoding the GLP-1-R were subcloned into a mammalian expression vector containing a neomycin (G418) resistance marker. The mammalian expression vectors encoding the GLP-1-R were transfected into HEK293 cells by a standard calcium phosphate transfection method. 48 hours post-transfection, cells were seeded for limited dilution cloning and selected with 1 mg/ml G418 in the culture medium. Following 3 weeks in G418 selection clones were picked and tested in a functional GLP-1 receptor potency assay as described below.\nThe cAMP ALPHASCREEN® assay from Perkin Elmer was used to quantitate the cAMP response to activation of the GLP1 and GLP2 receptor, respectively. […] Data from test compounds eliciting an increase in the intracellular level of cAMP were normalized relative to the positive and negative control (vehicle) to calculate the EC50 and maximal response from the concentration response curve."}, "[1]": {"experiment": "Solubility assessment (turbidity absorbance at 325 nm)", "assay_type": "physicochemical", "how_it_was_run": "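Peptide stock at 2 mg/ml in water at pH 2.5 diluted 1:1 into 100 mM acetate (pH 4.0, 5.0), histidine (pH 6.0, 7.0) or phosphate (pH 6.0, 7.0, 7.5) buffer. Absorbance at 280 and 325 nm read at ambient temperature (typically 25 °C), single samples (n=1).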"}, "human GLP-2 receptor": {"target": "T2, human GLP-2 receptor (Homo sapiens, UniProt O95838, D470N)", "T2 construct": "expressed in transfected cells", "T2 sequence (O95838 1-553 D470N)": "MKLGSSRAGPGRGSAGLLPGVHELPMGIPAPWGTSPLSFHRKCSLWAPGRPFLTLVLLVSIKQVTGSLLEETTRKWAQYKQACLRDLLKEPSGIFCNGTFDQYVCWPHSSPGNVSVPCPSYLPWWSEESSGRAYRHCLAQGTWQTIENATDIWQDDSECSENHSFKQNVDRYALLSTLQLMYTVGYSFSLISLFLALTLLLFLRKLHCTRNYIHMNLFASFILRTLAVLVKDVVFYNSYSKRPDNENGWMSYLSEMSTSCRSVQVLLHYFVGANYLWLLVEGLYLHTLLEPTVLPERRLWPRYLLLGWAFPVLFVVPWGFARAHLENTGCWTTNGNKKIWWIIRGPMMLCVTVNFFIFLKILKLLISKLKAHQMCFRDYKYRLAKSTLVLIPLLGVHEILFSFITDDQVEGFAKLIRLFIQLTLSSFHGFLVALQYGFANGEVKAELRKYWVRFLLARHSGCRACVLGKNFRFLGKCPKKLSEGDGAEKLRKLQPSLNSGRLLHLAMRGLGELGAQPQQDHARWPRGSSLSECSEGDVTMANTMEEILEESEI", "experiment": "GLP-2 receptor potency assay (cAMP ALPHASCREEN, HEK293 cells stably expressing GLP-2 R)", "assay_type": "cell-based", "details": "cAMP response, HEK293 cells expressing human GLP-2 R; read-out: EC50 GLP-2", "how_it_was_run": "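HEK293 clones stably transfected with the human GLP-2 receptor, selected with G418, were used. Intracellular cAMP was quantified by AlphaScreen. Responses were normalised to positive and vehicle controls, and EC50 and maximal response were taken from concentration-response curves.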"}, "[2]": {"experiment": "Chemical stability (RP-HPLC normalized purity after incubation at 40° C.)", "assay_type": "physicochemical", "details": "14-day incubation, 0.2 mg/ml, normalized purity (area-%)", "how_it_was_run": "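Peptide at 0.2 mg/ml final in water adjusted to pH 6, 7, 7.5 or 9, incubated at 40° C for 14 days. Purity measured as main-peak area-% by C18 RP-HPLC (acetonitrile/TFA/water gradient, UV 220 nm) and normalized to T=0 set at 100 for each pH.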"}},
  "note": "Read-outs that look alike come from different tables or passages of the source. Where a SMILES comes first, the peptide text is derived from it. [ ]: non-standard residue; d: D form. The star is where a group is joined. Stearoyl = CCCCCCCCCCCCCCCCCC(=O)*; Aib = CC(C)(N)C(=O)O",
  "data": [
    {"molecule": "CC[C@H](C)[C@H](NC(=O)[C@H](CC(C)C)NC(=O)[C@H](Cc1c[nH]c2ccccc12)NC(=O)[C@H](C)NC(=O)[C@@H](NC(=O)[C@H](Cc1ccccc1)NC(=O)[C@H](CC(=O)O)NC(=O)[C@H](CCCNC(=N)N)NC(=O)[C@H](C)NC(=O)[C@H](C)NC(=O)[C@H](CC(C)C)NC(=O)[C@H](CCCCNC(=O)CC[C@H](NC(=O)CCCCCCCCCCCCCCCCC(=O)O)C(=O)O)NC(=O)[C@H](CC(=O)O)NC(=O)[C@H](CC(C)C)NC(=O)[C@@H](NC(=O)[C@@H](NC(=O)[C@H](C)NC(=O)[C@H](CC(C)C)NC(=O)[C@H](CCC(=O)O)NC(=O)[C@H](CO)NC(=O)[C@@H](NC(=O)[C@H](Cc1ccccc1)NC(=O)[C@@H](NC(=O)CNC(=O)[C@H](CCC(=O)O)NC(=O)C(C)(C)NC(=O)[C@@H](N)Cc1c[nH]cn1)[C@@H](C)O)[C@@H](C)O)[C@@H](C)O)[C@@H](C)CC)[C@@H](C)CC)C(=O)N[C@@H](C)C(=O)N[C@@H](Cc1c[nH]cn1)C(=O)N[C@@H](CCCCN)C(=O)N[C@H](C(=O)N[C@H](C(=O)N[C@@H](CC(=O)O)C(=O)O)[C@@H](C)O)[C@@H](C)CC", "note": "[Compound 15] (HELM PEPTIDE1{H.[Aib].E.G.T.F.T.S.E.L.A.T.I.L.D.K.L.A.A.R.D.F.I.A.W.L.I.A.H.K.I.T.D}|PEPTIDE2{[O=C(O)CCCCCCCCCCCCCCCCC(=O)[*:2]].[gGlu]}$PEPTIDE1,PEPTIDE2,16:R3-2:R2$$$V2.0)", "values": [
      {"measurement": "EC50", "setting": "human GLP-1 receptor", "value": 0.25, "unit": "nM"}
    ]},
    {"molecule": "CCCCCCCCCCCCCCCCCC(=O)NCCCC[C@H](NC(=O)[C@H](CC(=O)O)NC(=O)[C@H](CC(C)C)NC(=O)[C@@H](NC(=O)[C@@H](NC(=O)[C@H](C)NC(=O)[C@H](CC(C)C)NC(=O)[C@H](CCC(=O)O)NC(=O)[C@H](CO)NC(=O)[C@@H](NC(=O)[C@H](Cc1ccccc1)NC(=O)[C@H](CO)NC(=O)CNC(=O)[C@H](CCC(=O)O)NC(=O)C(C)(C)NC(=O)[C@@H](N)Cc1c[nH]cn1)[C@@H](C)O)[C@@H](C)O)[C@@H](C)CC)C(=O)N[C@@H](CCC(N)=O)C(=O)N[C@@H](C)C(=O)N[C@@H](C)C(=O)N[C@@H](CCCNC(=N)N)C(=O)N[C@@H](CC(=O)O)C(=O)N[C@@H](Cc1ccccc1)C(=O)N[C@H](C(=O)N[C@@H](C)C(=O)N[C@@H](Cc1c[nH]c2ccccc12)C(=O)N[C@@H](CC(C)C)C(=O)N[C@H](C(=O)N[C@@H](CCC(N)=O)C(=O)N[C@@H](Cc1ccc(O)cc1)C(=O)N[C@@H](CCCCN)C(=O)N[C@H](C(=O)N[C@H](C(=O)N[C@@H](CC(=O)O)C(=O)O)[C@@H](C)O)[C@@H](C)CC)[C@@H](C)CC)[C@@H](C)CC", "note": "[Compound 36] (H-H[Aib]EGSFTSELATILDK(Stearoyl)QAARDFIAWLIQYKITD-OH)", "values": [
      {"measurement": "EC50", "setting": "human GLP-1 receptor", "value": 0.32, "unit": "nM"}
    ]},
    {"molecule": "CC[C@H](C)[C@H](NC(=O)[C@H](CC(C)C)NC(=O)[C@H](Cc1c[nH]c2ccccc12)NC(=O)[C@H](C)NC(=O)[C@@H](NC(=O)[C@H](Cc1ccccc1)NC(=O)[C@H](CC(=O)O)NC(=O)[C@H](CCCNC(=N)N)NC(=O)[C@H](C)NC(=O)[C@H](C)NC(=O)[C@H](CCC(N)=O)NC(=O)[C@H](CCC(=O)O)NC(=O)[C@H](CC(=O)O)NC(=O)[C@H](CC(C)C)NC(=O)[C@@H](NC(=O)[C@@H](NC(=O)[C@H](C)NC(=O)[C@H](CC(C)C)NC(=O)[C@H](CCC(=O)O)NC(=O)[C@H](CO)NC(=O)[C@H](CO)NC(=O)[C@H](Cc1ccccc1)NC(=O)[C@@H](NC(=O)CNC(=O)[C@H](CCC(=O)O)NC(=O)C(C)(C)NC(=O)[C@@H](N)Cc1c[nH]cn1)[C@@H](C)O)[C@@H](C)O)[C@@H](C)CC)[C@@H](C)CC)C(=O)N[C@@H](C)C(=O)N[C@@H](Cc1c[nH]cn1)C(=O)N[C@@H](CCCCN)C(=O)N[C@H](C(=O)N[C@H](C(=O)N[C@@H](CC(=O)O)C(=O)N[C@H](CCCCN)C(=O)N[C@H](CCCCN)C(=O)N[C@H](CCCCN)C(=O)N[C@H](CCCCN)C(=O)N[C@H](CCCCN)C(=O)N[C@H](CCCCNC(=O)CC[C@H](NC(=O)CCCCCCCCCCCCCCCCC(=O)O)C(=O)O)C(N)=O)[C@@H](C)O)[C@@H](C)CC", "note": "[Compound 38] (HELM PEPTIDE1{H.[Aib].E.G.T.F.S.S.E.L.A.T.I.L.D.E.Q.A.A.R.D.F.I.A.W.L.I.A.H.K.I.T.D.[dK].[dK].[dK].[dK].[dK].[dK].[am]}|PEPTIDE2{[O=C(O)CCCCCCCCCCCCCCCCC(=O)[*:2]].[gGlu]}$PEPTIDE1,PEPTIDE2,39:R3-2:R2$$$V2.0)", "values": [
      {"measurement": "EC50", "setting": "human GLP-1 receptor", "value": 0.25, "unit": "nM"}
    ]},
    {"molecule": "CC[C@H](C)[C@H](NC(=O)[C@H](CC(C)C)NC(=O)[C@H](Cc1c[nH]c2ccccc12)NC(=O)[C@H](C)NC(=O)[C@@H](NC(=O)[C@H](Cc1ccccc1)NC(=O)[C@H](CC(=O)O)NC(=O)[C@H](CCCNC(=N)N)NC(=O)[C@H](C)NC(=O)[C@H](C)NC(=O)[C@H](CCC(N)=O)NC(=O)[C@H](CCCCNC(=O)CC[C@H](NC(=O)CCCCCCCCCCCCCCCCC(=O)O)C(=O)O)NC(=O)[C@H](CC(=O)O)NC(=O)[C@H](CC(C)C)NC(=O)[C@@H](NC(=O)[C@@H](NC(=O)[C@H](C)NC(=O)[C@H](CC(C)C)NC(=O)[C@H](CCC(=O)O)NC(=O)[C@H](CO)NC(=O)[C@@H](NC(=O)[C@H](Cc1ccccc1)NC(=O)[C@H](CO)NC(=O)CNC(=O)[C@H](CCC(=O)O)NC(=O)C(C)(C)NC(=O)[C@@H](N)Cc1c[nH]cn1)[C@@H](C)O)[C@@H](C)O)[C@@H](C)CC)[C@@H](C)CC)C(=O)N[C@@H](C)C(=O)N[C@@H](Cc1c[nH]cn1)C(=O)N[C@@H](CCCCN)C(=O)N[C@H](C(=O)N[C@H](C(=O)N[C@@H](CC(=O)O)C(=O)O)[C@@H](C)O)[C@@H](C)CC", "note": "[Compound 22] (HELM PEPTIDE1{H.[Aib].E.G.S.F.T.S.E.L.A.T.I.L.D.K.Q.A.A.R.D.F.I.A.W.L.I.A.H.K.I.T.D}|PEPTIDE2{[O=C(O)CCCCCCCCCCCCCCCCC(=O)[*:2]].[gGlu]}$PEPTIDE1,PEPTIDE2,16:R3-2:R2$$$V2.0)", "values": [
      {"measurement": "solubility", "setting": "[1]; 100 mM acetate buffer pH 4.0, ambient temperature, read-out: Solubility Acetate buffer pH 4", "value": "< 1000", "unit": "µg/mL"},
      {"measurement": "solubility", "setting": "[1]; 100 mM acetate buffer pH 5.0, ambient temperature, read-out: Solubility Acetate buffer pH 5", "value": "< 1000", "unit": "µg/mL"},
      {"measurement": "solubility", "setting": "[1]; 100 mM histidine buffer pH 6.0, ambient temperature, read-out: Solubility Histidine buffer pH 6", "value": "≥ 1000", "unit": "µg/mL"},
      {"measurement": "solubility", "setting": "[1]; 100 mM histidine buffer pH 7.0, ambient temperature, read-out: Solubility Histidine buffer pH 7", "value": "≥ 1000", "unit": "µg/mL"},
      {"measurement": "solubility", "setting": "[1]; 100 mM phosphate buffer pH 6.0, ambient temperature, read-out: Solubility Phosphate buffer pH 6", "value": "≥ 1000", "unit": "µg/mL"},
      {"measurement": "solubility", "setting": "[1]; 100 mM phosphate buffer pH 7.0, ambient temperature, read-out: Solubility Phosphate buffer pH 7", "value": "≥ 1000", "unit": "µg/mL"},
      {"measurement": "solubility", "setting": "[1]; 100 mM phosphate buffer pH 7.5, ambient temperature, read-out: Solubility Phosphate buffer pH 7.5", "value": "≥ 1000", "unit": "µg/mL"},
      {"measurement": "EC50", "setting": "human GLP-2 receptor", "value": 0.2, "unit": "nM"},
      {"measurement": "pH 6 normalized stability", "setting": "[2]; pH 6, 40° C.", "value": "A (>90% normalised stability)"},
      {"measurement": "pH 7 normalized stability", "setting": "[2]; pH 7, 40° C.", "value": "B (>80% stability)"}
    ]}
  ]
}
